Assay results: paper PMC10375895, “Repurposed Fenoprofen Targeting SaeR Attenuates Staphylococcus aureus Virulence in Implant-Associated Infections” (ACS Central Science, 2023)

Molecular target: SaeR (response regulator) (Staphylococcus aureus, UniProt Q2G2G2)
Test: SPR titration with purified SaeR ([…]); EMSA shows loss of hla promoter DNA binding

SaeR (response regulator), sequence (Q2G2G2 whole entry): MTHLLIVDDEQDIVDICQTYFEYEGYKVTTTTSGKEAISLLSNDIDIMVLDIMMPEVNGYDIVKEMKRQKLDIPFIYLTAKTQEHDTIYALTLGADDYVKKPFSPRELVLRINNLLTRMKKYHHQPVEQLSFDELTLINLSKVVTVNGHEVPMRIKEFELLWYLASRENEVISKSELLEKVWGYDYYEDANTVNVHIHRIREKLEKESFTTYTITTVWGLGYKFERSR

Work on `CC(C(=O)O)c1cccc(Oc2ccccc2)c1` (stereo not shown) [fenoprofen] yielded a Kd of 16.5 µM.
